# Reference: article PMC8607422, “Development of a novel TLR8 agonist for cancer immunotherapy” (Molecular Biomedicine, 2020)
# Where two headings read alike, the source gives them in different places.
# Assays:
# [1] = tested on: HL-60 cells; test: Nitroblue Tetrazolium (NBT) cell differentiation assay; format: cell-based; settings: Homo sapiens, unit from concentration axis
# Text: Supplementary file 43556_2020_7_MOESM1_ESM.pdf: Additional file 1: Supplementary Fig. 1. […] Suplementary Fig. 2. […] Supplementary Fig. 3. Nitroblue Tetrazolium (NBT) cell differentiation assay. […] Supplementary Fig. 4. Representative data from human PBMC assay. […] Similar results were obtained from two different donors.
# [2] = target: T1, hERG (Homo sapiens, UniProt Q12809); test: hERG assay, whole-cell recordings with automated QPatch in CHO cells; format: cell-based
# T1 construct: expressed in transfected cells; host or cells: CHO
# T1 sequence (Q12809 whole entry): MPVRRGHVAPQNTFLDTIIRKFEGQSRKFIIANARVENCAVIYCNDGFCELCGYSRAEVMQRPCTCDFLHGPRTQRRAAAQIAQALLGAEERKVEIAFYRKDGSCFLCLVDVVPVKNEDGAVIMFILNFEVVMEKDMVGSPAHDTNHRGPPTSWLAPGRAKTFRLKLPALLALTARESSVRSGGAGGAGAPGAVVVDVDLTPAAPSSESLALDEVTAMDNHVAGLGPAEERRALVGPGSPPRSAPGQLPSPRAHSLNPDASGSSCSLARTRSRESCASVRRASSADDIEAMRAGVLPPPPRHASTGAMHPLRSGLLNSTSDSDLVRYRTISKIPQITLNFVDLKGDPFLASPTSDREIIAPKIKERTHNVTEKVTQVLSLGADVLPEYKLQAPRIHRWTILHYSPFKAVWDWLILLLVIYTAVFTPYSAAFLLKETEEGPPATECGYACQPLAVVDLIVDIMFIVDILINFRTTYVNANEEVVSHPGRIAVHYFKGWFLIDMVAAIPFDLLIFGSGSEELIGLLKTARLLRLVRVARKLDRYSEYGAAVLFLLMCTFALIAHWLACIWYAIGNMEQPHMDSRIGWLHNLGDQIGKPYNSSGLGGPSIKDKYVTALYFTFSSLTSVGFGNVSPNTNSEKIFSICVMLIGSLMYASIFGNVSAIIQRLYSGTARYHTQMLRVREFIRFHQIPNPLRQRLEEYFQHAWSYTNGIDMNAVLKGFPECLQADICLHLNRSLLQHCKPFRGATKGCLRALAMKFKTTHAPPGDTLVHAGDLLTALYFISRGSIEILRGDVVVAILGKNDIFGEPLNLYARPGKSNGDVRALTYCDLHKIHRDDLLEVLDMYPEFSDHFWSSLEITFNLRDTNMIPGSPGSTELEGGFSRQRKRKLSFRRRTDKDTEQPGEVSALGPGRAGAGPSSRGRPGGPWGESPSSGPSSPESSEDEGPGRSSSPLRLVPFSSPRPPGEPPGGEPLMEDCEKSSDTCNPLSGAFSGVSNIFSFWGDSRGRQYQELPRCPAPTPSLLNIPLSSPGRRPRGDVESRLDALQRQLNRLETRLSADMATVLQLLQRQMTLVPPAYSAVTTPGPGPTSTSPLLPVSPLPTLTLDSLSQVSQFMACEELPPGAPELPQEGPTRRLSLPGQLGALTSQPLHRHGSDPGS
# Experimental: hERG assay was conducted using CHO cell line stably transduced with hERG cDNA. Whole-cell recordings were performed using automated QPatch (Sophion Biosciences). Data were analyzed using Assay Software provided by Sophion (assay software V5.0), Microsoft Excel and GraphPad Prism.
# [3] = tested on: HL-60 human acute promyelocytic leukemia (AML) cells; test: Human HL-60 AML mouse xenograft model; format: in vivo; settings: HL-60 AML xenograft, NOD/SCID mice, 1.3 mg/kg sc once a week
# Experimental: All the animal experiments were conducted following Association for Assessment and Accreditation of Laboratory Animal Care (AAALAC)‘s guideline. The animal protocols were approved by the Institutional Animal Care and Use Committee (IACUC). Cell lines were purchased from credible vendors including ATCC. After tumor cell inoculation, the animals were checked daily for morbidity and mortality. At the time of routine monitoring, the animals were checked for any effects of tumor growth and treatment on the animals’ well-being such as mobility, food and water consumption, body weight gain/loss, matting and any other abnormalities. Clinical observations were recorded. Tumor volumes were measured twice a week in two dimensions using a caliper and the volume was expressed in mm^3 using the formula: V = 0.5 a × b^2 where a and b are the long and short diameters of the tumor, respectively. The procedures of dosing as well as tumor and body weight measurement were conducted in a laminar flow cabinet.
# For HL-60 experiment, HL-60 human acute promyelocytic leukemia (AML) cells were cultured in vitro in suspension in RPMI1640 medium supplemented with 10% fetal bovine serum and 1% penicillin/streptomycin at 37°C in an atmosphere of 5% CO2 in air. The tumor cells were routinely passaged twice per week. The cells growing in the exponential growth phase were harvested and counted for tumor inoculation. […]
# [4] = tested on: human peripheral blood mononuclear cells (PBMCs); test: Ex vivo human PBMC cytokine induction assay; format: cell-based; settings: 24 h
# Experimental: Briefly, PBMCs were isolated from fresh human blood (Chempartner, Shanghai, China). 2 × 10^5/100 μL/well hPBMCs were plated on 96-well cell culture plates. Serial dilutions of compounds with concentration range from 2 nM to 30 μM were added in duplicate wells. LPS was included as a control. The plate was incubated in a 37°C, 5% CO2 incubator for 24 h. The supernatant was harvested for cytokine detection using MILLIPLEX MAP Human Cytokine/Chemokine Magnetic Bead Panel - Immunology Multiplex Assay (Millipore) following the manufacturer’s protocol. Cytokines including TNF-α, IFN-α2, IL-1α, IL-1β, IL-6, IL-8, IL-10, IL-12p40, IL-12p70, MIP-1α, MIP-1β, G-CSF and IFN-γ were measured.
# [5] = target: T2, CYP 3A4 (Homo sapiens, UniProt P08684); test: CYP inhibition assay in human liver microsomes; format: in vitro ADME
# T2 construct: using human liver microsomes (BD Gentest); tissue BD Gentest; host or cells: human liver microsomes
# T2 sequence (P08684 whole entry): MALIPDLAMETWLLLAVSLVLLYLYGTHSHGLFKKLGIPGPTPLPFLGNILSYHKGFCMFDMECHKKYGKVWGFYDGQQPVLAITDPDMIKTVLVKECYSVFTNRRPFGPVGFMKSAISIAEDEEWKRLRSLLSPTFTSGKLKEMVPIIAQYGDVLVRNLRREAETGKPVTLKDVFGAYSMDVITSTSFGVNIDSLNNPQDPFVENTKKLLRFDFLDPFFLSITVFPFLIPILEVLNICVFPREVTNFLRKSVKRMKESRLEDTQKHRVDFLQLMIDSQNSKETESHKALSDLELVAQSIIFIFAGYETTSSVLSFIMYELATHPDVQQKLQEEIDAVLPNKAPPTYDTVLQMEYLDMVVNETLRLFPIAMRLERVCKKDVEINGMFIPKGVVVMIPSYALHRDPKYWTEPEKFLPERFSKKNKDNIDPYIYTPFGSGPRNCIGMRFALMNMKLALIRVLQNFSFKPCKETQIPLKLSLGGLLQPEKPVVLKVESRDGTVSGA
# Experimental: (§1) CYP inhibition assay was conducted to evaluate the inhibitive potential of the compounds on CYP 1A2, 2C9, 2C19, 2D6 and 3A4 using human liver microsomes (BD Gentest). Curve-fitting was performed to calculate IC50 using a Sigmoidal (non-linear) dose-response model using GraphPad Prism (GraphPad Software Inc.).
# [6] = target: T3, CYP 1A2 (Homo sapiens, UniProt P05177); test: CYP inhibition assay in human liver microsomes; format: in vitro ADME
# T3 construct: using human liver microsomes (BD Gentest); tissue BD Gentest; host or cells: human liver microsomes
# T3 sequence (P05177 1-516): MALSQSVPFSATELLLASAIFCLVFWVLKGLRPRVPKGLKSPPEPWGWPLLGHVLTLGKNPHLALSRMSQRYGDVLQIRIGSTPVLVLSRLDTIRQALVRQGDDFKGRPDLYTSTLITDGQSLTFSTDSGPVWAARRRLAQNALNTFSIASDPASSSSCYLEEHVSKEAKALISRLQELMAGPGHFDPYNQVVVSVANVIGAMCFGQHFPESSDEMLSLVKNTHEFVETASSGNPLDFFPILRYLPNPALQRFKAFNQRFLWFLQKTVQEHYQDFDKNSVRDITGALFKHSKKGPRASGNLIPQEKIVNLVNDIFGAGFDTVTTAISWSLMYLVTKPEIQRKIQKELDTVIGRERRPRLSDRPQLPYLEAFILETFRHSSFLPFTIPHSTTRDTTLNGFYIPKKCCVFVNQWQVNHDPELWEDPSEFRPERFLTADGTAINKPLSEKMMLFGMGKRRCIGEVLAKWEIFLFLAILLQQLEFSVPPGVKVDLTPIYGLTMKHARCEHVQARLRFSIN
# Experimental: as §1
# [7] = target: T4, CYP 2C9 (Homo sapiens, UniProt P11712); test: CYP inhibition assay in human liver microsomes; format: in vitro ADME
# T4 construct: using human liver microsomes (BD Gentest); tissue BD Gentest; host or cells: human liver microsomes
# T4 sequence (P11712 whole entry): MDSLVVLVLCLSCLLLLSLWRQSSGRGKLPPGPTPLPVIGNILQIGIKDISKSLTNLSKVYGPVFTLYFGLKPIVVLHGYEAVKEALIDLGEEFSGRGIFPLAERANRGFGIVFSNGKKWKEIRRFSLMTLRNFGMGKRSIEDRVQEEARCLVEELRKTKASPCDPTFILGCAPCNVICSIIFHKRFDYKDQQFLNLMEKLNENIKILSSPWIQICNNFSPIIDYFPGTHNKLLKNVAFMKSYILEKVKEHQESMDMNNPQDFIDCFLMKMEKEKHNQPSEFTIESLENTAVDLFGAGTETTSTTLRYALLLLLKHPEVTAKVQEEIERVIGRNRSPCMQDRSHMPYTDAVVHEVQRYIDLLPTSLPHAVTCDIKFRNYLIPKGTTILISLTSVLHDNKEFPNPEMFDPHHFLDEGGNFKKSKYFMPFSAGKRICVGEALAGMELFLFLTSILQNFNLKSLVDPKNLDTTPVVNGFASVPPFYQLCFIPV
# Experimental: as §1
# [8] = target: T5, CYP 2D6 (Homo sapiens, UniProt P10635); test: CYP inhibition assay in human liver microsomes; format: in vitro ADME
# T5 construct: using human liver microsomes (BD Gentest); tissue BD Gentest; host or cells: human liver microsomes
# T5 sequence (P10635 whole entry): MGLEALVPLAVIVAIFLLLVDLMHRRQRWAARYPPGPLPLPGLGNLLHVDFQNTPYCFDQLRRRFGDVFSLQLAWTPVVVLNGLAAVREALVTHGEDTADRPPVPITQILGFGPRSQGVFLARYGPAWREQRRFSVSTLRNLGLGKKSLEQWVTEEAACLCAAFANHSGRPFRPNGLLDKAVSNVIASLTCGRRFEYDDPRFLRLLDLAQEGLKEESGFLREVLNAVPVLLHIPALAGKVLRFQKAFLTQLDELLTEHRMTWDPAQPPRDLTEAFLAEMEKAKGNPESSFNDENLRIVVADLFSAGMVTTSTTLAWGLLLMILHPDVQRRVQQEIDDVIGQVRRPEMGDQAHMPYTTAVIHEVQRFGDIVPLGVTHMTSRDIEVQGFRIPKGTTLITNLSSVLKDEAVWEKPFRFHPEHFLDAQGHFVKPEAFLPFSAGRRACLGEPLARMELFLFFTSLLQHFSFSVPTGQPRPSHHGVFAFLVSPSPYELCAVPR
# Experimental: as §1
# [9] = target: T6, CYP 2C19 (Homo sapiens, UniProt P33261); test: CYP inhibition assay in human liver microsomes; format: in vitro ADME
# T6 construct: using human liver microsomes (BD Gentest); tissue BD Gentest; host or cells: human liver microsomes
# T6 sequence (P33261 whole entry): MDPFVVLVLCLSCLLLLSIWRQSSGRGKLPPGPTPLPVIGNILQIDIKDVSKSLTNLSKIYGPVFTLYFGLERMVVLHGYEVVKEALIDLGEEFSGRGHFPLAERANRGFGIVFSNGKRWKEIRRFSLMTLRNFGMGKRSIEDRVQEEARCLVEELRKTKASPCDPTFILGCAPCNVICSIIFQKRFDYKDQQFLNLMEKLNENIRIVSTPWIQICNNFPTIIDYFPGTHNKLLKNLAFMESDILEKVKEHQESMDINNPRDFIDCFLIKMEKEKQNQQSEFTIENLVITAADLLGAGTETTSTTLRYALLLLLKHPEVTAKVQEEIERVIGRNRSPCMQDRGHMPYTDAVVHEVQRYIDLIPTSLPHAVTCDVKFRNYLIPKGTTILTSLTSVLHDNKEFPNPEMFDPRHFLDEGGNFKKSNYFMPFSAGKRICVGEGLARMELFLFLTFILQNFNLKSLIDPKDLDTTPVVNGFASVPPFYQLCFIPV
# Experimental: as §1
structure (smiles),measurement,setting,value
"CCCN(CCC)C(=O)C1=Cc2ccc(-c3ccc(C(=O)N4CCCC4)cc3)cc2N=C(N)C1 [Motolimod, motolimod]",EC50,[1],1430 nM
same,IC50,[2],3840 nM
same,tumor growth inhibition (TGI) rate,[3],17%
same,EC50,"[4]; Donor 1, 24 h, read-out: EC50 G-CSF induction",841 nM
same,EC50,"[4]; Donor 1, 24 h, read-out: EC50 IFN-α2 induction",1330 nM
same,EC50,"[4]; Donor 1, 24 h, read-out: EC50 IFN-γ induction",4160 nM
same,EC50,"[4]; Donor 1, 24 h, read-out: EC50 IL-1α induction",849 nM
same,EC50,"[4]; Donor 1, 24 h, read-out: EC50 IL-1β induction",665 nM
same,EC50,"[4]; Donor 1, 24 h, read-out: EC50 IL-6 induction",424 nM
same,EC50,"[4]; Donor 1, 24 h, read-out: EC50 IL-8 induction",504 nM
same,EC50,"[4]; Donor 1, 24 h, read-out: EC50 IL-10 induction",304 nM
same,EC50,"[4]; Donor 1, 24 h, read-out: EC50 IL-12(p40) induction",447 nM
same,EC50,"[4]; Donor 1, 24 h, read-out: EC50 IL-12(p70) induction",285 nM
same,EC50,"[4]; Donor 1, 24 h, read-out: EC50 MIP-1α induction",277 nM
same,EC50,"[4]; Donor 1, 24 h, read-out: EC50 MIP-1β induction",277 nM
same,EC50,"[4]; Donor 1, 24 h, read-out: EC50 TNF-α induction",321 nM
same,EC50,"[4]; Donor 2, 24 h, read-out: EC50 G-CSF induction",461 nM
same,EC50,"[4]; Donor 2, 24 h, read-out: EC50 IFN-α2 induction",344 nM
same,EC50,"[4]; Donor 2, 24 h, read-out: EC50 IFN-γ induction",1660 nM
same,EC50,"[4]; Donor 2, 24 h, read-out: EC50 IL-1α induction",348 nM
same,EC50,"[4]; Donor 2, 24 h, read-out: EC50 IL-1β induction",556 nM
same,EC50,"[4]; Donor 2, 24 h, read-out: EC50 IL-6 induction",439 nM
same,EC50,"[4]; Donor 2, 24 h, read-out: EC50 IL-8 induction",502 nM
same,EC50,"[4]; Donor 2, 24 h, read-out: EC50 IL-10 induction",191 nM
same,EC50,"[4]; Donor 2, 24 h, read-out: EC50 IL-12(p40) induction",344 nM
same,EC50,"[4]; Donor 2, 24 h, read-out: EC50 IL-12(p70) induction",> 30000 nM
same,EC50,"[4]; Donor 2, 24 h, read-out: EC50 MIP-1α induction",208 nM
same,EC50,"[4]; Donor 2, 24 h, read-out: EC50 MIP-1β induction",248 nM
same,EC50,"[4]; Donor 2, 24 h, read-out: EC50 TNF-α induction",317 nM
same,IC50,[5],> 10000 nM
same,IC50,[6],> 10000 nM
same,IC50,[7],> 10000 nM
same,IC50,[8],> 10000 nM
same,IC50,[9],> 10000 nM
